# Patent US9708314B2, “Heterocyclic amide compound” (NISSAN CHEMICAL INDUSTRIES, LTD., priority 2013, dated 2017)
# Legend:
# Assay type in all cases: in vivo
# Glycine max = test: Test Example 4: effect on crop by application to foliage (diluvial soil, plastic box); details: for d (Glycine max) effect on crop grade: Application herbicide amount 320 g/ha, foliage application
# Procedure, shortened: (§1)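 Plants were grown in sterilized diluvial soil in a greenhouse at 25-30° C for 14 days, then sprayed on stems and leaves with water-diluted emulsion formulation at set rates in g/ha. Weed control and crop injury were scored 3 weeks after treatment on a 0-5 herbicidal-ratio scale, from 0 (≤5%) to 5 (≥90%).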
# [1] = system: Beta vulgaris ssp. vulgaris; test: as above; details: for f (Beta vulgaris ssp. vulgaris) effect on crop grade: Application herbicide amount 320 g/ha, foliage application
# Procedure, shortened: as §1
# Zea mays = test: as above; details: for c (Zea mays) effect on crop grade: Application herbicide amount 320 g/ha, foliage application
# Procedure, shortened: as §1
# Brassica campestris L. = test: as above; details: for g (Brassica campestris L.) effect on crop grade: Application herbicide amount 320 g/ha, foliage application
# Procedure, shortened: as §1
# Triticum aestivum = test: as above; details: for e (Triticum aestivum) effect on crop grade: Application herbicide amount 320 g/ha, foliage application
# Procedure, shortened: as §1
# Leptochloa chinensis = test: Test Example 3: herbicidal effect by application to foliage (Wagner pot, water depth 0.1-0.5 cm); details: Nineteenth Table; application to foliage; application herbicide amount 320 g/ha
# Procedure, shortened: (§2)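 Foliar spray, 14-day-old plants, emulsion diluted to target g/ha; rated 3 wk post-application, 0–5 scale (0 ≤5%, 5 ≥90% herbicidal ratio). Greenhouse 25–30 °C, alluvial soil.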
# [2] = system: Echinochloa crus-galli var. crus-galli; test: as above; details: Nineteenth Table; application to foliage; application herbicide amount 320 g/ha
# Procedure, shortened: as §2
# Cyperus difformis = test: as above; details: Nineteenth Table; application to foliage; application herbicide amount 320 g/ha
# Procedure, shortened: as §2
# [3] = system: directly sowed Oryza sativa; test: Test Example 3: effect on crop by application to foliage (Wagner pot, water depth 0.1-0.5 cm); details: Nineteenth Table; application to foliage; application herbicide amount 320 g/ha
# Procedure, shortened: as §2
# Digitaria ciliaris = test: Test Example 4: herbicidal effect by application to foliage (diluvial soil, plastic box); details: for F (Digitaria ciliaris) herbicidal effect grade: Application herbicide amount 320 g/ha, foliage application
# Procedure, shortened: as §1
# Setaria viridis = test: as above; details: for G (Setaria viridis) herbicidal effect grade: Application herbicide amount 320 g/ha, foliage application
# Procedure, shortened: as §1
# Veronica persica = test: as above; details: for R (Veronica persica) herbicidal effect grade: Application herbicide amount 320 g/ha, foliage application
# Procedure, shortened: as §1
# Apera spica-venti. = test: as above; details: for L (Apera spica-venti.) herbicidal effect grade: Application herbicide amount 320 g/ha, foliage application
# Procedure, shortened: as §1
# Amaranthus retroflexus = test: as above; details: for N (Amaranthus retroflexus) herbicidal effect grade: Application herbicide amount 320 g/ha, foliage application
# Procedure, shortened: as §1
# Alopecurus myosuroides = test: as above; details: for J (Alopecurus myosuroides) herbicidal effect grade: Application herbicide amount 320 g/ha, foliage application
# Procedure, shortened: as §1
# Avena fatua = test: as above; details: for I (Avena fatua) herbicidal effect grade: Application herbicide amount 320 g/ha, foliage application
# Procedure, shortened: as §1
# Galium spurium = test: as above; details: for Q (Galium spurium) herbicidal effect grade: Application herbicide amount 320 g/ha, foliage application
# Procedure, shortened: as §1
# Chenopodium album = test: as above; details: for O (Chenopodium album) herbicidal effect grade: Application herbicide amount 320 g/ha, foliage application
# Procedure, shortened: as §1
# Lolium multiflorum Lam. = test: as above; details: for K (Lolium multiflorum Lam.) herbicidal effect grade: Application herbicide amount 320 g/ha, foliage application
# Procedure, shortened: as §1
# [4] = system: Echinochloa crus-galli var. crus-galli; test: as above; details: for H (Echinochloa crus-galli var. crus-galli) herbicidal effect grade: Application herbicide amount 320 g/ha, foliage application
# Procedure, shortened: as §1
# Abutilon theophrasti = test: as above; details: for M (Abutilon theophrasti) herbicidal effect grade: Application herbicide amount 320 g/ha, foliage application
# Procedure, shortened: as §1
# Stellaria media = test: as above; details: for P (Stellaria media) herbicidal effect grade: Application herbicide amount 320 g/ha, foliage application
# Procedure, shortened: as §1
# [5] = system: directly sowed Oryza sativa; test: Test Example 4: effect on crop by application to foliage (diluvial soil, plastic box); details: application to foliage, application herbicide amount 320 g/ha
# Procedure, shortened: as §1
# [6] = application to foliage, application herbicide amount 320 g/ha
SMILES,d (Glycine max) effect on crop grade (Glycine max),f (Beta vulgaris ssp. vulgaris) effect on crop grade [1],c (Zea mays) effect on crop grade (Zea mays),g (Brassica campestris L.) effect on crop grade (Brassica campestris L.),e (Triticum aestivum) effect on crop grade (Triticum aestivum),D (herbicidal effect grade) (Leptochloa chinensis),H (herbicidal effect grade) [2],E (herbicidal effect grade) (Cyperus difformis),b (effect on crop grade) [3],F (Digitaria ciliaris) herbicidal effect grade (Digitaria ciliaris),G (Setaria viridis) herbicidal effect grade (Setaria viridis),R (Veronica persica) herbicidal effect grade (Veronica persica),L (Apera spica-venti.) herbicidal effect grade (Apera spica-venti.),N (Amaranthus retroflexus) herbicidal effect grade (Amaranthus retroflexus),J (Alopecurus myosuroides) herbicidal effect grade (Alopecurus myosuroides),I (Avena fatua) herbicidal effect grade (Avena fatua),Q (Galium spurium) herbicidal effect grade (Galium spurium),O (Chenopodium album) herbicidal effect grade (Chenopodium album),K (Lolium multiflorum Lam.) herbicidal effect grade (Lolium multiflorum Lam.),H (Echinochloa crus-galli var. crus-galli) herbicidal effect grade [4],further results
CSCc1nnc(NC(=O)c2ccc(C(F)(F)F)n3c(C(C)C)nnc23)o1 [1-141],1 (Herbicidal ratio of 5% or more and less than 20%),4 (Herbicidal ratio of 70% or more and less than 90%),0 (Herbicidal ratio of 5% or less (almost no effect)),4 (Herbicidal ratio of 70% or more and less than 90%),0 (Herbicidal ratio of 5% or less (almost no effect)),2 (Herbicidal ratio of 20% or more and less than 40%),4 (Herbicidal ratio of 70% or more and less than 90%),3 (Herbicidal ratio of 40% or more and less than 70%),1 (Herbicidal ratio of 5% or more and less than 20%),3 (Herbicidal ratio of 40% or more and less than 70%),1 (Herbicidal ratio of 5% or more and less than 20%),3 (Herbicidal ratio of 40% or more and less than 70%),0 (Herbicidal ratio of 5% or less (almost no effect)),3 (Herbicidal ratio of 40% or more and less than 70%),0 (Herbicidal ratio of 5% or less (almost no effect)),0 (Herbicidal ratio of 5% or less (almost no effect)),1 (Herbicidal ratio of 5% or more and less than 20%),4 (Herbicidal ratio of 70% or more and less than 90%),0 (Herbicidal ratio of 5% or less (almost no effect)),4 (Herbicidal ratio of 70% or more and less than 90%),M (Abutilon theophrasti) herbicidal effect grade (Abutilon theophrasti): 3 (Herbicidal ratio of 40% or more and less than 70%); P (Stellaria media) herbicidal effect grade (Stellaria media): 3 (Herbicidal ratio of 40% or more and less than 70%)
COC(=O)CSc1nnc2c(C(=O)Nc3nnc(C)o3)ccc(C(F)(F)F)n12 [1-127],1 (Herbicidal ratio of 5% or more and less than 20%),2 (Herbicidal ratio of 20% or more and less than 40%),0 (Herbicidal ratio of 5% or less (almost no effect)),0 (Herbicidal ratio of 5% or less (almost no effect)),0 (Herbicidal ratio of 5% or less (almost no effect)),4 (Herbicidal ratio of 70% or more and less than 90%),4 (Herbicidal ratio of 70% or more and less than 90%),3 (Herbicidal ratio of 40% or more and less than 70%),0 (Herbicidal ratio of 5% or less (almost no effect)),1 (Herbicidal ratio of 5% or more and less than 20%),1 (Herbicidal ratio of 5% or more and less than 20%),1 (Herbicidal ratio of 5% or more and less than 20%),0 (Herbicidal ratio of 5% or less (almost no effect)),1 (Herbicidal ratio of 5% or more and less than 20%),0 (Herbicidal ratio of 5% or less (almost no effect)),0 (Herbicidal ratio of 5% or less (almost no effect)),0 (Herbicidal ratio of 5% or less (almost no effect)),5 (Herbicidal ratio of 90% or more (almost completely withered)),0 (Herbicidal ratio of 5% or less (almost no effect)),4 (Herbicidal ratio of 70% or more and less than 90%),M (Abutilon theophrasti) herbicidal effect grade (Abutilon theophrasti): 2 (Herbicidal ratio of 20% or more and less than 40%); P (Stellaria media) herbicidal effect grade (Stellaria media): 3 (Herbicidal ratio of 40% or more and less than 70%)
Cc1nnc(NC(=O)c2ccc(C(F)(F)F)n3c(C4CC=CCC4)nnc23)o1 (stereo not drawn) [1-170],,,,,,4 (Herbicidal ratio of 70% or more and less than 90%),2 (Herbicidal ratio of 20% or more and less than 40%),,1 (Herbicidal ratio of 5% or more and less than 20%),,,,,,,,,,,,"d: effect on crop, Glycine max (Glycine max; [6]): 2 (Herbicidal ratio of 20% or more and less than 40%); f: effect on crop, Beta vulgaris ssp. vulgaris [1, 6]: 5 (Herbicidal ratio of 90% or more (almost completely withered)); c: effect on crop, Zea mays (Zea mays; [6]): 0 (Herbicidal ratio of 5% or less (almost no effect)); g: effect on crop, Brassica campestris L. (Brassica campestris L.; [6]): 3 (Herbicidal ratio of 40% or more and less than 70%); b: effect on crop, directly sowed Oryza sativa [5]: 0 (Herbicidal ratio of 5% or less (almost no effect)); e: effect on crop, Triticum aestivum (Triticum aestivum; [6]): 0 (Herbicidal ratio of 5% or less (almost no effect)); F: herbicidal effect on Digitaria ciliaris (Digitaria ciliaris; [6]): 4 (Herbicidal ratio of 70% or more and less than 90%); G: herbicidal effect on Setaria viridis (Setaria viridis; [6]): 3 (Herbicidal ratio of 40% or more and less than 70%); R: herbicidal effect on Veronica persica (Veronica persica; [6]): 4 (Herbicidal ratio of 70% or more and less than 90%); L: herbicidal effect on Apera spica-venti. (Apera spica-venti.; [6]): 1 (Herbicidal ratio of 5% or more and less than 20%); N: herbicidal effect on Amaranthus retroflexus (Amaranthus retroflexus; [6]): 3 (Herbicidal ratio of 40% or more and less than 70%); J: herbicidal effect on Alopecurus myosuroides (Alopecurus myosuroides; [6]): 0 (Herbicidal ratio of 5% or less (almost no effect)); I: herbicidal effect on Avena fatua (Avena fatua; [6]): 1 (Herbicidal ratio of 5% or more and less than 20%); Q: herbicidal effect on Galium spurium (Galium spurium; [6]): 2 (Herbicidal ratio of 20% or more and less than 40%); O: herbicidal effect on Chenopodium album (Chenopodium album; [6]): 5 (Herbicidal ratio of 90% or more (almost completely withered)); K: herbicidal effect on Lolium multiflorum Lam. (Lolium multiflorum Lam.; [6]): 1 (Herbicidal ratio of 5% or more and less than 20%); H: herbicidal effect on Echinochloa crus-galli var. crus-galli [4, 6]: 4 (Herbicidal ratio of 70% or more and less than 90%); M: herbicidal effect on Abutilon theophrasti (Abutilon theophrasti; [6]): 3 (Herbicidal ratio of 40% or more and less than 70%); P: herbicidal effect on Stellaria media (Stellaria media; [6]): 4 (Herbicidal ratio of 70% or more and less than 90%)"
